Test results taken from US20050221381A1, “Method for isolating ligands” (priority 2002, published 2005).
Read-outs that look alike come from different tables or passages of the source.

Key:
[1] = target: T1, soluble DRB1*0401 molecules (DR4) (Homo sapiens, UniProt P01903+P01911, A100K/A169T/F76Y/I96L/K127E/L162R/M171V/N62H/P40V/Q125Y/R42H/S133A/S149N/S66Y/V115G/V209L/W38E); format: binding; set-up: key to DR4 binding: +++: high binding affinity; ++: moderate binding affinity; +: low binding affinity; −: no binding; key to Binding to DRB1 *0401: −: no binding/T cell response; +/−: weak binding/T cell response; +: intermediate binding/T cell response; ++: strong binding/T cell response; conditions: for DR4 binding: direct binding of individual peptides, SDS-stability assay, compared with YAR and HA306-318
T1 construct: Soluble HLA class I A*0201 and HLA class II DRA1*0101/DRB1*0101/Ii, DRA1*0101/DRB1*0401/Ii and DRA1*0101/DRB1*0404/Ii molecules were expressed in SC-2 cells; made in house; host or cells: SC-2 cells

[2] = system: HLA-DRB1*0401-transgenic mice splenocytes; format: in vivo, mouse; set-up: key to DRB1*0401 mice total SC (T cell response) / DRB1*0401 mice CD4+ (T cell response): −: no binding/T cell response; +/−: weak binding/T cell response; +: intermediate binding/T cell response; ++: strong binding/T cell response
[3] = target: T1, soluble DRB1*0401 molecules (DR4); format: binding; set-up: key: −: no binding; +/−: weak binding; +: intermediate binding; ++: strong binding; conditions: individual pp65 15mer, SDS-stability assay
[4] = system: PBMC from CMV seropositive donors; format: cell-based, human
[5] = target: T1, soluble DRB1*0401 molecules (DR4); format: binding; set-up: key: +++: high binding affinity; ++: moderate binding affinity; +: low binding affinity; −: no binding; conditions: individual pp65 15mer, SDS-stability assay
[6] = IFN-gamma ELISpot, enriched CD4+ fraction of splenocytes of HLA-DR4 transgenic mice vaccinated with the longer peptide, ex vivo re-stimulation
[7] = IFN-gamma ELISpot, total splenocytes of HLA-DR4 transgenic mice vaccinated with the longer peptide, ex vivo re-stimulation

## ILVSQYTPDSTPCHR [Peptide 56]
[1]; soluble DRB1*0401 molecules
  Binding to DRB1 *0401: ++
[2]; [6]
  DRB1*0401 mice CD4+ (T cell response): +
[2]; [7]
  DRB1*0401 mice total SC (T cell response): ++
[3]
  Binding to DRB1*0401: ++

## NFLLPDAQSIQAAAAG [Peptide 1241]
[1]
  DR4 binding: ++

## KTPRVTGGGANAGAS [Peptide 416]
[4]
  Recognition by T cells in HLA context other than described: recognized by T cells in a different HLA context than known before

## GDDDVWTSGSDSDEE [Peptide 395]
[4]
  Recognition by T cells in HLA context other than described: recognized by T cells in a different HLA context than known before

## TGSGAGIAQAAAGTV [Peptide 1236]
[1]
  DR4 binding: +

## PTFTSQYRIQGKLEY [Peptide 367]
[5]
  Binding to DRB1*0401: −

## VSDLKSSTAVIPGYPV [Peptide 1240]
[1]
  DR4 binding: +

## VTTERKTPRVTGGGA [Peptide 411]
[4]
  Recognition by T cells in HLA context other than described: recognized by T cells in a different HLA context than known before

## PDVYYTSAFVFPTKD [Peptide 178]
[1]; soluble DRB1*0401 molecules
  Binding to DRB1 *0401: ++
[2]; [6]
  DRB1*0401 mice CD4+ (T cell response): +
[2]; [7]
  DRB1*0401 mice total SC (T cell response): +
[3]
  Binding to DRB1*0401: ++

## TRATKMQVIGDQYVK [Peptide 211]
[4]
  Induction of IFN-gamma secretion in T cells / PBMC from CMV seropositive donors: can induce functional, IFN-gamma secreting T cells in humans

## MTRGRLKAESTVAPE [Peptide 451]
[1]; soluble DRB1*0401 molecules
  Binding to DRB1 *0401: +
[2]; [6]
  DRB1*0401 mice CD4+ (T cell response): ++
[2]; [7]
  DRB1*0401 mice total SC (T cell response): +
[3]
  Binding to DRB1*0401: +

## QNQWKEPDVYYTSAF [Peptide 172]
[5]
  Binding to DRB1*0401: −

## HTWDRHDEGAAQGDD [Peptide 383]
[1]; soluble DRB1*0401 molecules
  Binding to DRB1 *0401: +/−
[2]; [6]
  DRB1*0401 mice CD4+ (T cell response): −
[2]; [7]
  DRB1*0401 mice total SC (T cell response): −
[3]
  Binding to DRB1*0401: +/−

## QGDDDVWTSGSDSDE [Peptide 394]
[4]
  Recognition by T cells in HLA context other than described: recognized by T cells in a different HLA context than known before

## QRGPQYSEHPTFTSQ [Peptide 358]
[2]; mouse, in vivo
  DRB1*0401 mice CD4+ (T cell response): +/−
[2]; mouse, in vivo, sc
  DRB1*0401 mice total SC (T cell response): ++

## EYRHTWDRHDEGAAQ [Peptide 380]
[1]; soluble DRB1*0401 molecules
  Binding to DRB1 *0401: −
[2]; [6]
  DRB1*0401 mice CD4+ (T cell response): −
[2]; [7]
  DRB1*0401 mice total SC (T cell response): −
[5]
  Binding to DRB1*0401: −

## TKMQVIGDQYVKVYL [Peptide 214]
[4]
  Induction of IFN-gamma secretion in T cells / PBMC from CMV seropositive donors: can induce functional, IFN-gamma secreting T cells in humans

## PAVFTWPPWQAGILA [Peptide 479]
[4]
  Induction of IFN-gamma secretion in T cells / PBMC from CMV seropositive donors: can induce functional, IFN-gamma secreting T cells in humans

## RKTPRVTGGGAMAGA [Peptide 415]
[4]
  Recognition by T cells in HLA context other than described: recognized by T cells in a different HLA context than known before

## KYQEFFWDANDIYRI [Peptide 509]
[1]
  Binding to DRB1 *0401: −
[2]; mouse, in vivo
  DRB1*0401 mice CD4+ (T cell response): ++
[2]; mouse, in vivo, sc
  DRB1*0401 mice total SC (T cell response): ++

## YYTSAFVFPTKDVAL [Peptide 181]
[1]; soluble DRB1*0401 molecules
  Binding to DRB1 *0401: −
[2]; [6]
  DRB1*0401 mice CD4+ (T cell response): +/−
[2]; [7]
  DRB1*0401 mice total SC (T cell response): +

## LQRGPQYSEHPTFTS [Peptide 357]
[2]; mouse, in vivo
  DRB1*0401 mice CD4+ (T cell response): +/−
[2]; mouse, in vivo, sc
  DRB1*0401 mice total SC (T cell response): +

## GQNLKYQEFFWDAND [Peptide 505]
[1]; soluble DRB1*0401 molecules
  Binding to DRB1 *0401: −
[2]; [6]
  DRB1*0401 mice CD4+ (T cell response): −
[2]; [7]
  DRB1*0401 mice total SC (T cell response): +

## VQGQNLKYQEFFWDA [Peptide 503]
[4]
  Induction of IFN-gamma secretion in T cells / PBMC from CMV seropositive donors: can induce functional, IFN-gamma secreting T cells in humans

## QYTPDSTPCHRGDNQ [Peptide 60]
[1]; soluble DRB1*0401 molecules
  Binding to DRB1 *0401: ++
[2]; [6]
  DRB1*0401 mice CD4+ (T cell response): +/−
[2]; [7]
  DRB1*0401 mice total SC (T cell response): ++
[3]
  Binding to DRB1*0401: ++

## SLILVSQYTPDSTPC [Peptide 54]
[1]; soluble DRB1*0401 molecules
  Binding to DRB1 *0401: −
[2]; [6]
  DRB1*0401 mice CD4+ (T cell response): +/−
[2]; [7]
  DRB1*0401 mice total SC (T cell response): −
[5]
  Binding to DRB1*0401: −

## LEYRHTWDRHDEGAA [Peptide 379]
[5]
  Binding to DRB1*0401: −

## IHNPAVFTWPPWQAG [Peptide 476]
[4]
  Induction of IFN-gamma secretion in T cells / PBMC from CMV seropositive donors: can induce functional, IFN-gamma secreting T cells in humans

## STPCHRGDNQLQVQH [Peptide 65]
[1]; soluble DRB1*0401 molecules
  Binding to DRB1 *0401: −
[2]; [6]
  DRB1*0401 mice CD4+ (T cell response): −
[2]; [7]
  DRB1*0401 mice total SC (T cell response): −
[5]
  Binding to DRB1*0401: −
